Assay results: patent US7294463B2, “Method of screening for compounds that modulate activity of a regulatory sequence of the β-2 subunit of a neuronal nicotinic acetylcholine receptor” (Institut Pasteur, priority 1994, dated 2007)
Like-named read-outs stand apart in the source and are kept apart here.

How the values were obtained:
[1] = test system: nuclear extracts from neuroblastomas or fibroblasts; assay: Gel shift assay, competition against 32P labelled E-D probe; format: binding; details: excess of unlabelled competitor
Text: FIG. 7: Gel shift experiment. Autoradiogram of the mobility shift experiment. The probe used was a ^32P labelled double stranded E-D oligonucleotide. This oligonucleotide carries only the E-Box/Dyad element, whereas the oligonucleotide S-E carries the Sp1 binding site as well as the E-Box/Dyad element. The competitor oligonucleotides were used in 10- and 100-fold molar excess, except for S-E that was used only in 100-fold molar excess.
Oligonucleotides were labeled either with Y[^32P]ATP and T4 polynucleotide kinase, or with ∝[^32P]CTP and Klenow enzyme as in Current Protocols in Molecular Biology. Nuclear extracts were prepared from ˜10^7 cells as described (Bessis et al., 1993). For binding, […] of labeled oligonucleotide was mixed with 0.5 μg of protein extract in 10 mM Hepes pH 8, 10% glycerol], 0.1 mM EDTA, 0.1 M NaCl, 2 mM DTT, 0.1 mg/ml BSA, 4 mM MgCl2, 4 mM spermidine, 1 mM PMSF, 1 μg polydldC in 20 μl. The reaction was incubated for 10 minutes on ice. The DNA-protein complexes were then analyzed on a 7% polyacrylamide gel.
To further understand the role of the E-Box in the regulation of the promoter, we investigated the protein complexes able to interact with this sequence. Gel shift assays were performed using the 33 bp sequence (nt-135 to -103, oligonucleotide E-D) as a probe. […]

[2] = test system: neurons of the anterior thalamus; format: cell-based, mouse
Method: (§1) METHODS, Coronal slices were obtained from the thalamus of 8-12 day old mice using a Dosaka slicer in ice cold ACSF medium (125 mM NaCl/26 mM NaHCO3/25 mM Glucose/1.25 mM NaH2PO4/2.5 mM KCl 2.5/2 mM CaCl2/1 mM MgCl2 pH 7.3). Slices were maintained in the same medium for 1-8 hours. Cells in slices were visualized through a Zeiss microscope. Whole cell recordings were obtained with 2-4 MOhm hard-glass pipettes containing 150 mM CsCl/10 mM EGTA/10 mM HEPES/4 mM di-sodium ATP/4 mM MgCl2 pH adjusted to 7.3 with KOH. Five to ten sec. pulses of drug were applied rapidly to the cell through a […] pipette above the slice, fed by gravity with a solution containing 150 mM NaCl/10 mM Hepes/2.5 mM KCl/2 mM CaCl2/1 mM MgCl2. Recordings were made in the presence of CNQX (5 μM) and of the GABAA antagonist SR-95531 (10 μM). Currents were recorded with an Axopatch ID (Axon Instrument) patch amplifier, digitized on a Compaq PC and further analyzed with the PClamp program (Axon Instrument).

neurons in the MHb = assay: Patch clamp recording of nicotine evoked currents, medial habenula (MHb); format: cell-based, mouse; details: for Agonist potency rank order: wild type
Method: as §1

[3] = test system: β2−/− mice and their wildtype siblings
Method: METHODS, Passive avoidance test was performed as described in the text, according to Nordberg and Bergh^20 and Faiman et al^20. Nicotine (bitartrate, Sigma) was freshly dissolved in PBS. IP injection of the same volume of either nicotine or vehicle immediately followed footshock during the training trial.
Retention of an inhibitory avoidance response was assessed using the passive avoidance test, which was also chosen for its pharmacological sensitivity to nicotine administration ^19,20. This test consisted of a training trial in which the mouse was placed in a well-lighted chamber of a shuttle box, and the latency to enter the adjacent dark chamber was measured. Upon entry to the dark chamber, a mild, inescapable foot shock was delivered, and vehicle or nicotine (10 μg/kg) was injected into the mouse. Twenty-four (24) hours later, retention was assessed by measuring the latency to enter the dark chamber.

high affinity sites = details: read-out: KD of high affinity sites; equilibrium binding experiments; cited from earlier work
high affinity nAChR [4] = details: 3H-nicotine 4 nM, brain sections of β2−/− mice
Method: (§2) Following incubation, sections were rinsed 2×2 min. in ice cold PBS and briefly rinsed in ice cold water. Slides were exposed for 60 days to Hyperfilm ^3H.

high affinity nAChR [5] = biological target: high affinity nAChR (Mus musculus, UniProt O70174+Q9ERK7); details: 3H-nicotine 4 nM, all brain areas of β2+/− mice
Sequence of high affinity nAChR (Mus musculus, UniProt O70174+Q9ERK7) (Q9ERK7 26-501): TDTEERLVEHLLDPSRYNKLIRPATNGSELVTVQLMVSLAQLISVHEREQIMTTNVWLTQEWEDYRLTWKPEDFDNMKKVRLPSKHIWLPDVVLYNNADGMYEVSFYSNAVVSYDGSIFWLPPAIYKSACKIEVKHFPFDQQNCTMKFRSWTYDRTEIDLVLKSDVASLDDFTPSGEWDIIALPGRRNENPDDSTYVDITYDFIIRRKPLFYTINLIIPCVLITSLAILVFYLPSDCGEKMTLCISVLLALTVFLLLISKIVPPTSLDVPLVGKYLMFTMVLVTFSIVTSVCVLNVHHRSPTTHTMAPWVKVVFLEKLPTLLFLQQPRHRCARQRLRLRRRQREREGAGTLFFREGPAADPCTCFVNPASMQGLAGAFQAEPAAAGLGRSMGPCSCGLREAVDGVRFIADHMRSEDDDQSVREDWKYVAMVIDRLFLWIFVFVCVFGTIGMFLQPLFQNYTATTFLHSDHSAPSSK
Sequence of high affinity nAChR (Mus musculus, UniProt O70174+Q9ERK7) (O70174 31-629): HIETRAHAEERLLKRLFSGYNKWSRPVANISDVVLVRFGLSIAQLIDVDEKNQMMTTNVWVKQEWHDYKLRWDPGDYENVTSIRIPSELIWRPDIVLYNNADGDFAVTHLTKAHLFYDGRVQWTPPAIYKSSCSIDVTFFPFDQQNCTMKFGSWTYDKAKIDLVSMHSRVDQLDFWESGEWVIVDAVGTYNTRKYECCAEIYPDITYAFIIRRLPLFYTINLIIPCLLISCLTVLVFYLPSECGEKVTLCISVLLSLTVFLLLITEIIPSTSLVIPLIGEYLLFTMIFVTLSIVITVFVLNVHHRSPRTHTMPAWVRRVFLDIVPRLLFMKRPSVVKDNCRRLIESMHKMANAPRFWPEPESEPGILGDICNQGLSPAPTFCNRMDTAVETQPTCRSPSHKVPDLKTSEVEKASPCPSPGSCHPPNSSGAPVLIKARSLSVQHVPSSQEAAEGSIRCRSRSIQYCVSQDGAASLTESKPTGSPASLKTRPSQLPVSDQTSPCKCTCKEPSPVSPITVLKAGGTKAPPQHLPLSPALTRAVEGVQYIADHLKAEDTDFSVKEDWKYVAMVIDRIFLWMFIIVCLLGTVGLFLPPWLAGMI
Method: as §2

5′-CCTCCCCTAGTAGTTCCTCAGGTGTTCCCTAGA [Mut.E]
Competition for complexes formed with labelled E-D probe [1]: no competition

5′-TCCTCCCCTAGTAGTTCCACTTGTGTTCCCTAG [E-D]
Competition for complexes formed with labelled E-D probe [1]: fully displaced

C[N+]1(C)CCN(c2ccccc2)CC1 [DMPP]
Agonist order of the response ([2]; wild type, anterior thalamus): nicotine>DMPP>cytisine | Agonist potency rank order (neurons in the MHb; MHb): cytisine=nicotine>DMPP

O=c1cccc2n1C[C@@H]1CNC[C@H]2C1 [cytisine]
Agonist order of the response [2]: nicotine>DMPP>cytisine | Agonist potency rank order (neurons in the MHb; MHb): cytisine=nicotine>DMPP

CO[C@H]1CC=C2CCN3CCC4=C(CC(=O)OC4)[C@]23C1 [dihydro-β-erythroidine]
Effect on the nicotine evoked inward current ([2]; 1 μM antagonist, 10 μM nicotine, wild type): blocked

CN1CCCC1c1cccnc1 (stereo not shown) [nicotine]
Average inward current ([2]; 10 μM nicotine, wild type animals): 155+/−73 pA | Dose required for a reproducible response ([2]; anterior thalamic neurons): 1 µM | Agonist order of the response ([2]; wild type, anterior thalamus): nicotine>DMPP>cytisine | Response of anterior thalamic neurons to nicotine ([2]; β2−/− mice, 100% of neurons tested): completely abolished | Upward shift of retention latency curve ([3]; nicotine 10 μg/kg IP post-training, retention after 24 hours, wild type mice, p<0.01): approximately 80 sec | Effect of nicotine administration on retention ([3]; nicotine 10 μg/kg, mutant (β2−/−) mice): completely ineffective | Kd (high affinity sites): ~10 nM | Response of cells in the MHb to nicotine (neurons in the MHb; mutant mice): maintained | Average inward current (neurons in the MHb; wild type mice, MHb): 505+/−132 pA | Agonist potency rank order (neurons in the MHb; MHb): cytisine=nicotine>DMPP | Nicotine binding in situ (high affinity nAChR [4]): completely abolished | Reduction of nicotine binding in situ (high affinity nAChR [5]): approximately 50%
